Data as given in the kinase profiling compilation of Christmann-Franck et al. (2016).

Legend:
Test in all cases: KINOMEscan competition binding
Conditions in all cases: compound 10.0 µM
PDGFRA (human) = PDGFRA (human) (UniProt P16234)
PAK2 (human) = PAK2 (human) (UniProt Q13177)
PHKG1 (human) = PHKG1 (human) (UniProt Q16816)
MLTK (human) = MLTK (human) (UniProt Q9NYL2)
NUAK1 (human) = NUAK1 (human) (UniProt O60285)
PTK2B (human) = PTK2B (human) (UniProt Q14289)
ACVR2B (human) = ACVR2B (human) (UniProt Q13705)
MAP3K11 (human) = MAP3K11 (human) (UniProt Q16584)
PIK3CB (human) = PIK3CB (human) (UniProt P42338)
Chain of PIK3CB (human) (P42338 whole entry, looked up): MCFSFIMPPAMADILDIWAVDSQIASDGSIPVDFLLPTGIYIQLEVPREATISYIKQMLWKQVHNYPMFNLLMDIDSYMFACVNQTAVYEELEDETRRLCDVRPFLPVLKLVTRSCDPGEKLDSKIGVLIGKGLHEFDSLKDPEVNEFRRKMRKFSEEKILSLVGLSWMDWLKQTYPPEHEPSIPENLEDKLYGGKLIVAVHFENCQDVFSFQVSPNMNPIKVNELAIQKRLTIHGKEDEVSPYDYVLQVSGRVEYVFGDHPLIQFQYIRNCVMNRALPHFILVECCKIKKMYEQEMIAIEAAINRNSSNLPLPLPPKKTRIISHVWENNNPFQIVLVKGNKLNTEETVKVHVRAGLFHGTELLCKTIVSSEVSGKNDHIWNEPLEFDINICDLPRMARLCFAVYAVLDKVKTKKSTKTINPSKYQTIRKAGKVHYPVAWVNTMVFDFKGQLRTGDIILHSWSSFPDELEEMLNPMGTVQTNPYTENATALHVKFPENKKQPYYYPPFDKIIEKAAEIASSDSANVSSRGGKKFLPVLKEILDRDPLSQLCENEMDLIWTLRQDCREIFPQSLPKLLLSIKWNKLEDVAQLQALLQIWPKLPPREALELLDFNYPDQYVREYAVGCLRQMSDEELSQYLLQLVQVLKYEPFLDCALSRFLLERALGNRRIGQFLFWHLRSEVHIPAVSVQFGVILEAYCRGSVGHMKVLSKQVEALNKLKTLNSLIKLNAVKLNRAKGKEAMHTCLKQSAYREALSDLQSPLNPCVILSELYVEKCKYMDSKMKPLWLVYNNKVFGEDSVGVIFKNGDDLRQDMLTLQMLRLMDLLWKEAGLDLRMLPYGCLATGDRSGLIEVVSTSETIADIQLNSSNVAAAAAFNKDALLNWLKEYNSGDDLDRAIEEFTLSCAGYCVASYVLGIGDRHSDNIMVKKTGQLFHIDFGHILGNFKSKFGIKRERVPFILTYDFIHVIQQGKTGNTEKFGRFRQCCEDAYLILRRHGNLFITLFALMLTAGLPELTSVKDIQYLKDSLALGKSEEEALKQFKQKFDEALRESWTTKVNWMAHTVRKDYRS

DCLK2 (human) = DCLK2 (human) (UniProt Q8N568)
NEK1 (human) = NEK1 (human) (UniProt Q96PY6)
[1] = biological target: JAK2 JH1 catalytic (human) (UniProt O60674)
RIOK3 (human) = RIOK3 (human) (UniProt O14730)
NEK9 (human) = NEK9 (human) (UniProt Q8TD19)
Chain of NEK9 (human) (Q8TD19 whole entry, looked up): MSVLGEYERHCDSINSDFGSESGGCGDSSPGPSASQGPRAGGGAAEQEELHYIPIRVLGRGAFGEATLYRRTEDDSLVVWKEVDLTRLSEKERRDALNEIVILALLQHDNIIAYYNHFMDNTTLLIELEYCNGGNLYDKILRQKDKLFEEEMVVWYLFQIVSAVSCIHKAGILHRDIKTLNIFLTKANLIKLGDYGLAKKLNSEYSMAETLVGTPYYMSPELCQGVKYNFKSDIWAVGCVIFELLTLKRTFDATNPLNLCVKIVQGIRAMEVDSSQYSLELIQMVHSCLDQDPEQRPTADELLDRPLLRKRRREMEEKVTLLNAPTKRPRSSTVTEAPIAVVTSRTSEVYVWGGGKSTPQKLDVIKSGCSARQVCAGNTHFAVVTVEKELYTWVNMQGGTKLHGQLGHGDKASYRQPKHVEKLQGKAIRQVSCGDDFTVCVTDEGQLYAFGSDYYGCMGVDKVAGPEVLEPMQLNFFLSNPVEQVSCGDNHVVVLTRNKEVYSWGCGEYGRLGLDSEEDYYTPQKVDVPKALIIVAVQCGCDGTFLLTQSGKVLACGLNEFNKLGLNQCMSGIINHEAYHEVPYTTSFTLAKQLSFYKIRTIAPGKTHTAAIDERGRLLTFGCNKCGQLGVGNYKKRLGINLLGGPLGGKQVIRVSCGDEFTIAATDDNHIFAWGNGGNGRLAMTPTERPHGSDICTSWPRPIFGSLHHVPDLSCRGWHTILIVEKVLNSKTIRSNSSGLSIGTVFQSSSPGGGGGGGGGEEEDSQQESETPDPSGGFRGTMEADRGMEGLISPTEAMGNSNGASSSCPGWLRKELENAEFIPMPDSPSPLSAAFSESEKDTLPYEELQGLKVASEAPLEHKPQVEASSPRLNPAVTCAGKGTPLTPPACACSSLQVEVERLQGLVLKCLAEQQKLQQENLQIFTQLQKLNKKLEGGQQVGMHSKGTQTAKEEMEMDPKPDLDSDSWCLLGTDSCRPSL

TGFBR1 (human) = TGFBR1 (human) (UniProt P36897)
Chain of TGFBR1 (human) (P36897 whole entry, looked up): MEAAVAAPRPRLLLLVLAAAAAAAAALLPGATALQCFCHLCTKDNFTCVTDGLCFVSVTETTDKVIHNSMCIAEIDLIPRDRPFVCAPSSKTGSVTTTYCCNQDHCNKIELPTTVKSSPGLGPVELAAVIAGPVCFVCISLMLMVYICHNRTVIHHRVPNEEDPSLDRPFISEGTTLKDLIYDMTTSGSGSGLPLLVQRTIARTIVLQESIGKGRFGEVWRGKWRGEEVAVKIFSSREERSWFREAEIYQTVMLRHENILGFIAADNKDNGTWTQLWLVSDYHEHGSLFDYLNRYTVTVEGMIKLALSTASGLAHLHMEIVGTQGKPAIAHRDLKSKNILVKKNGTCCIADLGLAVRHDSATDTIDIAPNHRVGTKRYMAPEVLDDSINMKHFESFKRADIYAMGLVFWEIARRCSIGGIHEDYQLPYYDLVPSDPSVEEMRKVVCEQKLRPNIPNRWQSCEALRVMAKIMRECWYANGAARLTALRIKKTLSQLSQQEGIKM

ADCK4 (human) = ADCK4 (human) (UniProt Q96D53)
PHKG2 (human) = PHKG2 (human) (UniProt P15735)
ACVR1 (human) = ACVR1 (human) (UniProt Q04771)
RET (human) = RET (human) (UniProt P07949)
MYO3A (human) = MYO3A (human) (UniProt Q8NEV4)
LYN (human) = LYN (human) (UniProt P07948)
PLK1 (human) = PLK1 (human) (UniProt P53350)
CSNK1G1 (human) = CSNK1G1 (human) (UniProt Q9HCP0)
MAP3K4 (human) = MAP3K4 (human) (UniProt Q9Y6R4)
PRKACA (human) = PRKACA (human) (UniProt P17612)
LATS1 (human) = LATS1 (human) (UniProt O95835)
Chain of LATS1 (human) (O95835 whole entry, looked up): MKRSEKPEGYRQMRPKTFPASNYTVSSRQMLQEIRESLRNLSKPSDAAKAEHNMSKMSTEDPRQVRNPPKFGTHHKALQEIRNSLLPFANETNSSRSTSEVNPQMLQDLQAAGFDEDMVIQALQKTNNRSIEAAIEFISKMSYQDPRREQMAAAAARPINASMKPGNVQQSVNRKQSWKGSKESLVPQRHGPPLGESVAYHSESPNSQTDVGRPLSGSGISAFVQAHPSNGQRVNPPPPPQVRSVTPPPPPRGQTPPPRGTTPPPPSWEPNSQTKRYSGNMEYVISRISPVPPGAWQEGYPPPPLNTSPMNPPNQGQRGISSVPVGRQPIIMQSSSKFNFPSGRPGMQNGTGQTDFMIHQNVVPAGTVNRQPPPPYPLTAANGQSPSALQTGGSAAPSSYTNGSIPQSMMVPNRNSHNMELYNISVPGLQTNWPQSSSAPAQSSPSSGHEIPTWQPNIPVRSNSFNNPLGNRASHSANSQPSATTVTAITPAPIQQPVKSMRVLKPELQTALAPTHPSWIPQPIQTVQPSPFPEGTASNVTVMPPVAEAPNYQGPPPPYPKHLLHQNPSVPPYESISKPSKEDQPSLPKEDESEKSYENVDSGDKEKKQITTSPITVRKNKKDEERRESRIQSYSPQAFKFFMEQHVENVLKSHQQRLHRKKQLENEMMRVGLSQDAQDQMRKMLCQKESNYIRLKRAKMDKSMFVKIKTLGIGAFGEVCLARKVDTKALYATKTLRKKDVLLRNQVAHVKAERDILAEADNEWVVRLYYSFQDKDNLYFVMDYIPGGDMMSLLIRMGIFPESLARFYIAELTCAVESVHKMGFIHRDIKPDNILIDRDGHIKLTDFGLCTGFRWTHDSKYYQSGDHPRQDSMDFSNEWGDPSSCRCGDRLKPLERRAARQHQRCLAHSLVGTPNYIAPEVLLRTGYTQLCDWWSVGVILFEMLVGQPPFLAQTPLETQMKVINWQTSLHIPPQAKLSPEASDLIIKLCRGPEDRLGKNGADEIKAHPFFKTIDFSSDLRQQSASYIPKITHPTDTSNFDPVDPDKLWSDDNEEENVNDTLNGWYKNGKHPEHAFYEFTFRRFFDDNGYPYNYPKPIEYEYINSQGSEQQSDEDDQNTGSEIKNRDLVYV

CAMKK2 (human) = CAMKK2 (human) (UniProt Q96RR4)
CSNK1D (human) = CSNK1D (human) (UniProt P48730)
GSK3A (human) = GSK3A (human) (UniProt P49840)
CDK7 (human) = CDK7 (human) (UniProt P50613)
AURKB (human) = AURKB (human) (UniProt Q96GD4)
DAPK1 (human) = DAPK1 (human) (UniProt P53355)
Chain of DAPK1 (human) (P53355 whole entry, looked up): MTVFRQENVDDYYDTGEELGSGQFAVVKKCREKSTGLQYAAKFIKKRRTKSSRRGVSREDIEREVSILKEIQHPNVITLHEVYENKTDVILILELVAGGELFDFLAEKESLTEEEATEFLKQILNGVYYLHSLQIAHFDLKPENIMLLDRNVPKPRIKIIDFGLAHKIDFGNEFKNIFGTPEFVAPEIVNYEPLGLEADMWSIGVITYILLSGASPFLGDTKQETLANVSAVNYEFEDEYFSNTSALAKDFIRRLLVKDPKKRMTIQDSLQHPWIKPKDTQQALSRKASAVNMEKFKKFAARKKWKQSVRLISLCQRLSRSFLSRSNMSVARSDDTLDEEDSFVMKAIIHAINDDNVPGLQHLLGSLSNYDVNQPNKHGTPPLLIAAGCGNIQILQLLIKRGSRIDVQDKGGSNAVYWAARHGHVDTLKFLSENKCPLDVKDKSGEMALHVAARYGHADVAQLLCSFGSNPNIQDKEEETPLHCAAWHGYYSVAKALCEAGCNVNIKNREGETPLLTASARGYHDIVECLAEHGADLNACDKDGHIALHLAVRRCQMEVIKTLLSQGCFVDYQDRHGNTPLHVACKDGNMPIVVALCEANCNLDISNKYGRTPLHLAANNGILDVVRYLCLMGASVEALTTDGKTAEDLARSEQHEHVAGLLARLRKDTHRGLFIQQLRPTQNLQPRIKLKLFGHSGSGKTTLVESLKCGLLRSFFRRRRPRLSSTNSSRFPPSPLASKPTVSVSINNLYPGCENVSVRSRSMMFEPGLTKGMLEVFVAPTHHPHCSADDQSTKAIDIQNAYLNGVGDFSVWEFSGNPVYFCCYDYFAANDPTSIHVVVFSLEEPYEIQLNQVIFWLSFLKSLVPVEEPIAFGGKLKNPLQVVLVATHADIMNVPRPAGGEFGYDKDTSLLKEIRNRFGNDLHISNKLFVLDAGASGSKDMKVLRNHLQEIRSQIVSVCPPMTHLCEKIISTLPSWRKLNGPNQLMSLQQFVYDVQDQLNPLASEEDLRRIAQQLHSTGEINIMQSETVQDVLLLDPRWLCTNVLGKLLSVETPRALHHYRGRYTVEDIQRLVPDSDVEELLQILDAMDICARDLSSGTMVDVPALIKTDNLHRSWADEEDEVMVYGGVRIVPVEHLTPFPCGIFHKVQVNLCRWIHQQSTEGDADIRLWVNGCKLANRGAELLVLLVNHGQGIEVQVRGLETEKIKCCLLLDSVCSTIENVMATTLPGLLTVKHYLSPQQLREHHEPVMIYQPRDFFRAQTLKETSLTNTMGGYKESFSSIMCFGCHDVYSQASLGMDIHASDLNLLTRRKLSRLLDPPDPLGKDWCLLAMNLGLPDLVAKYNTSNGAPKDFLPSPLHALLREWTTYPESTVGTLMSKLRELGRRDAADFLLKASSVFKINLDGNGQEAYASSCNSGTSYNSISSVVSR

STK25 (human) = STK25 (human) (UniProt O00506)
EPHA8 (human) = EPHA8 (human) (UniProt P29322)
CDK14 (human) = CDK14 (human) (UniProt O94921)
ANKK1 (human) = ANKK1 (human) (UniProt Q8NFD2)
RPS6KA6 KD2 (human) = RPS6KA6 KD2 (human) (UniProt Q9UK32)
TLK2 (human) = TLK2 (human) (UniProt Q86UE8)
ULK1 (human) = ULK1 (human) (UniProt O75385)
CDK16 (human) = CDK16 (human) (UniProt Q00536)

CN(C)C/C=C/C(=O)Nc1cccc(Nc2ncc3c(n2)N(C)c2ccccc2C(=O)N3C)c1
kinase still bound, per cent of control (PDGFRA (human)): 100%
kinase still bound, per cent of control (PAK2 (human)): 67%
kinase still bound, per cent of control (PHKG1 (human)): 69%
kinase still bound, per cent of control (MLTK (human)): 79%
kinase still bound, per cent of control (NUAK1 (human)): 0.85%
kinase still bound, per cent of control (PTK2B (human)): 74%
kinase still bound, per cent of control (ACVR2B (human)): 9.4%
kinase still bound, per cent of control (MAP3K11 (human)): 100%
kinase still bound, per cent of control (PIK3CB (human)): 32%
kinase still bound, per cent of control (DCLK2 (human)): 0.5%
kinase still bound, per cent of control (NEK1 (human)): 69%
kinase still bound, per cent of control [1]: 0.75%
kinase still bound, per cent of control (RIOK3 (human)): 16%
kinase still bound, per cent of control (NEK9 (human)): 93%
kinase still bound, per cent of control (TGFBR1 (human)): 25%
kinase still bound, per cent of control (ADCK4 (human)): 100%
kinase still bound, per cent of control (PHKG2 (human)): 25%
kinase still bound, per cent of control (ACVR1 (human)): 45%
kinase still bound, per cent of control (RET (human)): 0.15%
kinase still bound, per cent of control (MYO3A (human)): 100%
kinase still bound, per cent of control (LYN (human)): 52%
kinase still bound, per cent of control (PLK1 (human)): 22%
kinase still bound, per cent of control (CSNK1G1 (human)): 47%
kinase still bound, per cent of control (MAP3K4 (human)): 73%
kinase still bound, per cent of control (PRKACA (human)): 100%
kinase still bound, per cent of control (LATS1 (human)): 100%
kinase still bound, per cent of control (CAMKK2 (human)): 8.1%
kinase still bound, per cent of control (CSNK1D (human)): 52%
kinase still bound, per cent of control (GSK3A (human)): 69%
kinase still bound, per cent of control (CDK7 (human)): 9.6%
kinase still bound, per cent of control (AURKB (human)): 0.1%
kinase still bound, per cent of control (DAPK1 (human)): 52%
kinase still bound, per cent of control (STK25 (human)): 66%
kinase still bound, per cent of control (EPHA8 (human)): 90%
kinase still bound, per cent of control (CDK14 (human)): 100%
kinase still bound, per cent of control (ANKK1 (human)): 6%
kinase still bound, per cent of control (RPS6KA6 KD2 (human)): 0.6%
kinase still bound, per cent of control (TLK2 (human)): 88%
kinase still bound, per cent of control (ULK1 (human)): 0.15%
kinase still bound, per cent of control (CDK16 (human)): 95%

COc1cc(C(=O)NC2CCN(C)CC2)ccc1Nc1ncc2c(n1)N(C1CCCC1)C(C)CC(=O)N2C (stereo not given)
kinase still bound, per cent of control (PDGFRA (human)): 100%
kinase still bound, per cent of control (PAK2 (human)): 100%
kinase still bound, per cent of control (PHKG1 (human)): 100%
kinase still bound, per cent of control (MLTK (human)): 100%
kinase still bound, per cent of control (NUAK1 (human)): 100%
kinase still bound, per cent of control (PTK2B (human)): 13%
kinase still bound, per cent of control (ACVR2B (human)): 100%
kinase still bound, per cent of control (MAP3K11 (human)): 100%
kinase still bound, per cent of control (PIK3CB (human)): 100%
kinase still bound, per cent of control (DCLK2 (human)): 19%
kinase still bound, per cent of control (NEK1 (human)): 100%
kinase still bound, per cent of control [1]: 100%
kinase still bound, per cent of control (RIOK3 (human)): 100%
kinase still bound, per cent of control (NEK9 (human)): 100%
kinase still bound, per cent of control (TGFBR1 (human)): 100%
kinase still bound, per cent of control (ADCK4 (human)): 100%
kinase still bound, per cent of control (PHKG2 (human)): 100%
kinase still bound, per cent of control (ACVR1 (human)): 100%
kinase still bound, per cent of control (RET (human)): 100%
kinase still bound, per cent of control (MYO3A (human)): 100%
kinase still bound, per cent of control (LYN (human)): 100%
kinase still bound, per cent of control (PLK1 (human)): 19%
kinase still bound, per cent of control (CSNK1G1 (human)): 100%
kinase still bound, per cent of control (MAP3K4 (human)): 100%
kinase still bound, per cent of control (PRKACA (human)): 100%
kinase still bound, per cent of control (LATS1 (human)): 100%
kinase still bound, per cent of control (CAMKK2 (human)): 24%
kinase still bound, per cent of control (CSNK1D (human)): 100%
kinase still bound, per cent of control (GSK3A (human)): 100%
kinase still bound, per cent of control (CDK7 (human)): 100%
kinase still bound, per cent of control (AURKB (human)): 100%
kinase still bound, per cent of control (DAPK1 (human)): 26%
kinase still bound, per cent of control (STK25 (human)): 100%
kinase still bound, per cent of control (EPHA8 (human)): 100%
kinase still bound, per cent of control (CDK14 (human)): 100%
kinase still bound, per cent of control (ANKK1 (human)): 100%
kinase still bound, per cent of control (RPS6KA6 KD2 (human)): 12%
kinase still bound, per cent of control (TLK2 (human)): 100%
kinase still bound, per cent of control (ULK1 (human)): 100%
kinase still bound, per cent of control (CDK16 (human)): 100%

O=C(NOC[C@H](O)CO)c1ccc(F)c(F)c1Nc1ccc(I)cc1F
kinase still bound, per cent of control (PDGFRA (human)): 96%
kinase still bound, per cent of control (PAK2 (human)): 93%
kinase still bound, per cent of control (PHKG1 (human)): 100%
kinase still bound, per cent of control (MLTK (human)): 88%
kinase still bound, per cent of control (NUAK1 (human)): 81%
kinase still bound, per cent of control (PTK2B (human)): 98%
kinase still bound, per cent of control (ACVR2B (human)): 66%
kinase still bound, per cent of control (MAP3K11 (human)): 100%
kinase still bound, per cent of control (PIK3CB (human)): 100%
kinase still bound, per cent of control (DCLK2 (human)): 100%
kinase still bound, per cent of control (NEK1 (human)): 98%
kinase still bound, per cent of control [1]: 100%
kinase still bound, per cent of control (RIOK3 (human)): 100%
kinase still bound, per cent of control (NEK9 (human)): 82%
kinase still bound, per cent of control (TGFBR1 (human)): 100%
kinase still bound, per cent of control (ADCK4 (human)): 100%
kinase still bound, per cent of control (PHKG2 (human)): 93%
kinase still bound, per cent of control (ACVR1 (human)): 76%
kinase still bound, per cent of control (RET (human)): 90%
kinase still bound, per cent of control (MYO3A (human)): 47%
kinase still bound, per cent of control (LYN (human)): 72%
kinase still bound, per cent of control (PLK1 (human)): 72%
kinase still bound, per cent of control (CSNK1G1 (human)): 61%
kinase still bound, per cent of control (MAP3K4 (human)): 100%
kinase still bound, per cent of control (PRKACA (human)): 72%
kinase still bound, per cent of control (LATS1 (human)): 100%
kinase still bound, per cent of control (CAMKK2 (human)): 100%
kinase still bound, per cent of control (CSNK1D (human)): 100%
kinase still bound, per cent of control (GSK3A (human)): 90%
kinase still bound, per cent of control (CDK7 (human)): 83%
kinase still bound, per cent of control (AURKB (human)): 99%
kinase still bound, per cent of control (DAPK1 (human)): 100%
kinase still bound, per cent of control (STK25 (human)): 91%
kinase still bound, per cent of control (EPHA8 (human)): 94%
kinase still bound, per cent of control (CDK14 (human)): 100%
kinase still bound, per cent of control (ANKK1 (human)): 64%
kinase still bound, per cent of control (RPS6KA6 KD2 (human)): 80%
kinase still bound, per cent of control (TLK2 (human)): 98%
kinase still bound, per cent of control (ULK1 (human)): 100%
kinase still bound, per cent of control (CDK16 (human)): 100%
